Data on one compound can be found in patent publication US5607962A, “Substituted indole derivatives” (Bayer Aktiengesellschaft, priority 1995, dated 1997).

This assay concerns smooth muscle cells. The assay can be described thus: Inhibition of the proliferation of smooth muscle cells (3H-thymidine incorporation). The note with it: Sus scrofa; smooth muscle cells from pig aortas; half-maximum inhibition of 3H-thymidine incorporation produced by 10% FCS. The assay is classed as cell-based, pigs. On the procedure:
Investigation of the inhibition of the proliferation of smooth muscle cells by the compounds according to the invention
To determine the antiproliferative action of the compounds, smooth muscle cells are used which have been obtained from the aortas of pigs by the media explant technique [R. Ross, J. Cell. Biol. 50, 172, 1971]. The cells are inoculated into suitable culture dishes, as a role 96-hole plates, and cultured at 37° C. for 2-3 days in medium 199 with 7.5% FCS and 7.5% NCS, 2 mM L-glutamine and 15 mM HEPES, pH 7.4 in 5% CO2. The cells are then synchronized by withdrawal of serum for 2-3 days and then stimulated to growth using serum or other factors. At the same time, test compounds are added. […] To determine the IC50 values, the active compound concentration is calculated at which sequential dilution of the active compound causes half-maximum inhibition of the thymidine incorporation produced by 10% FCS.
For orientation: Uptake of a labelled nucleoside into DNA is a usual measure of proliferation.

The structures appear in SMILES notation.

In general, IC50 refers to the point on the concentration scale where inhibition reaches its midpoint. The low end stands for greater potency in that assay, the high end for weaker potency in that assay. With `NC(=O)C(NC(=O)[C@@H]1CCCC[C@H]1c1ccc(Cc2c(-c3ccccc3)[nH]c3ccccc23)cc1)c1ccccc1` (stereo partly drawn) [Example 3, trans-2-[4-(2-Phenylindol-3-yl-methyl)phenyl]-cyclohexane-1-carbonyl(phenylglycinamido)amide], the IC50 stood at 0.02 nM.
